Test results published in PMC11571015, “Hybrids of Membrane-Translocating Antimicrobial Peptides Show Enhanced Activity through Membrane Permeabilization” (ACS Medicinal Chemistry Letters, 2024).
Values after ≈ are worked out from the molar mass of the structure shown.

Experiments:
E. coli = assay type: cell-based, E. coli (Top10 Strain); details: median MIC; microbroth dilution, 1:2 serial dilution 18.2 to 1.8x10-2 μM, 4 × 10^6 CFU/mL, 1 h 37°C in wash buffer pH 7.4, then TSB overnight (18-24 h), OD600; triplicate per plate; mixture: each peptide at the reported concentration
Procedure: (§1) Supplemental Information for Trevellin et al.
(§2) Peptide design and preparation […]
(§3) synthesized by GenScript (Piscataway, NJ) at >95% purity determined by HPLC and dissolved in DI water. Concentrations were measured by triplicate tryptophan absorbance readings at 280 nm (ε=5700 M–1cm–1, l=1 cm) using a ThermoScientific NanoDrop 2000 (Waltham, MA). Buforin II (BF2) included an F10W mutation used in many previous studies1-5 to allow for concentration measurements.
(§4) Bacteria included E. coli (Top10 Strain, Invitrogen/ThermoFisher) containing a plasmid for ampicillin resistance (Novagen) and/or B. subtilis (ATCC #6051). Bacterial growth was performed in TSB (trypticase soy broth) prepared at 3% w/v (30 g of media in 1 L) from BD Difco unless otherwise noted. Overnight cultures were picked from petri dishes or frozen stock and grown for 14-16 hours at 37 °C in TSB with shaking. E. coli overnight cultures were incubated with 25 μg/mL ampicillin. The overnight cultures were then diluted 1:100 in 25 mL TSB and incubated at 37 °C with shaking for 2.5 h. The culture was pelleted via centrifugation at 1500×g for 10 min at room temperature and resuspended in sterile cold wash buffer (10 mM sodium phosphate buffer and 10 mM sodium chloride, pH 7.4). These resuspended bacteria were then used for radial diffusion, microbroth dilution, and propidium iodide assays. […]
(§5) Microbroth dilution assay
(§6) Microbroth dilution assays were used to determine the minimum inhibitory concentration (MIC) of each peptide for E. coli and B. subtilis (ATCC #6051). A 1:2 serial dilution was prepared for a peptide across the top row of a 96-well plate. 100 μL of bacterial suspension (4 × 10^6 CFU/mL, diluted in sterile wash buffer, 10 mM sodium phosphate buffer and 10 mM sodium chloride, pH 7.4) and 10 μL of peptide were mixed to each well in subsequent rows of the plate. The 11 effective peptide concentrations ranged from 18.2 μM to 1.8x10-2 μM, with DI water used as a control, and each concentration was tested in triplicate per plate. After the bacteria and peptide mixtures were incubated in plates at 37°C for 1 hour, 100 μL of 6% w/v TSB was added to each well. For wells containing E. coli, ampicillin was added at a final concentration of 25 µg/ml. The plate was then incubated overnight (18-24 h) at 37°C. After incubation, OD600nm were measured using the SpectraMax M3 microplate reader (Molecular Devices). […]
(§7) relative permeability = F5/F0
(§8) Each peptide was tested with bacteria grown from at least three distinct overnight […]
(§9) The MTS assay is a colorimetric viability assay for mammalian cells. HEK 293 cells (ATCC CRL-1573) were grown in complete growth medium (EMEM, 10% fetal bovine serum, 1% penicillin-streptomycin). Cells were cultured in a T-75 maintenance flask, fed with fresh media every 1-2 days, and passaged approximately every 5-7 days once cells reached 70-90% confluence. During passaging, HEK 293 cells were plated in a 96-well plate at 20,000 cells/well and incubated for 4-6 hours (37 °C, 95% humidity, 5% CO2). Each column of cells (8 replicates) was then incubated overnight with 18.2 µM peptide or a control. After incubation, media was aspirated and refreshed for each well, […]

B. subtilis = assay type: cell-based, B. subtilis (ATCC #6051); details: 1 h, pH 7.4
Procedure: as §1, §2, §3, §4, §5, §6, §7, §8, §9

Structure (SMILES) | MIC against E. coli (E. coli) [µM] | MIC against B. subtilis (B. subtilis) [µM]
CC[C@H](C)[C@H](NC(=O)[C@H](CCCNC(=N)N)NC(=O)[C@@H](NC(=O)[C@H](CCCCN)NC(=O)[C@H](CCCCN)NC(=O)[C@H](CC(N)=O)NC(=O)[C@H](CC(=O)O)NC(=O)[C@H](CCCNC(=N)N)NC(=O)[C@H](C)NC(=O)[C@H](C)NC(=O)[C@H](CCCCN)NC(=O)[C@H](CCCNC(=N)N)NC(=O)[C@H](CC(C)C)NC(=O)[C@H](CC(C)C)NC(=O)[C@H](CCCNC(=N)N)NC(=O)[C@H](Cc1c[nH]cn1)NC(=O)[C@@H](NC(=O)[C@H](CCCNC(=N)N)NC(=O)CNC(=O)[C@@H](NC(=O)[C@@H]1CCCN1C(=O)[C@H](Cc1c[nH]c2ccccc12)NC(=O)[C@H](CCC(N)=O)NC(=O)[C@H](CC(C)C)NC(=O)CNC(=O)[C@H](C)NC(=O)[C@H](CCCNC(=N)N)NC(=O)[C@H](CO)NC(=O)[C@H](CO)NC(=O)[C@H](CCCNC(=N)N)NC(=O)[C@@H](N)[C@@H](C)O)C(C)C)C(C)C)[C@@H](C)O)C(=O)N[C@@H](Cc1c[nH]c2ccccc12)C(=O)N1CCC[C@H]1C(=O)N[C@@H](CCCNC(=N)N)C(=O)N[C@@H](Cc1c[nH]cn1)C(=O)N[C@@H](CC(C)C)C(=O)N[C@@H](CCC(N)=O)C(=O)N[C@@H](CC(C)C)C(=O)N[C@@H](C)C(=O)N[C@H](C(=O)N[C@@H](CCCNC(=N)N)C(=O)N[C@@H](CC(N)=O)C(=O)O)C(C)C [BF2-A-DesHDAP1 (BAD)] | 1.1 (≈ 5.5 µg/mL) | 4.6 (≈ 23 µg/mL)
CC[C@H](C)[C@H](NC(=O)[C@H](CCCNC(=N)N)NC(=O)[C@@H](NC(=O)[C@H](CCCCN)NC(=O)[C@H](CCCCN)NC(=O)[C@H](CC(N)=O)NC(=O)[C@H](CC(=O)O)NC(=O)[C@H](CCCNC(=N)N)NC(=O)[C@H](C)NC(=O)[C@H](CCCCN)NC(=O)[C@H](CCCNC(=N)N)NC(=O)[C@H](CC(C)C)NC(=O)[C@H](CC(C)C)NC(=O)[C@H](CCCNC(=N)N)NC(=O)[C@H](Cc1c[nH]cn1)NC(=O)[C@@H](NC(=O)[C@H](CCCNC(=N)N)NC(=O)CNC(=O)[C@@H](NC(=O)[C@@H]1CCCN1C(=O)[C@H](Cc1c[nH]c2ccccc12)NC(=O)[C@H](CCC(N)=O)NC(=O)[C@H](CC(C)C)NC(=O)CNC(=O)[C@H](C)NC(=O)[C@H](CCCNC(=N)N)NC(=O)[C@H](CO)NC(=O)[C@H](CO)NC(=O)[C@H](CCCNC(=N)N)NC(=O)[C@@H](N)[C@@H](C)O)C(C)C)C(C)C)[C@@H](C)O)C(=O)N[C@@H](Cc1c[nH]c2ccccc12)C(=O)N1CCC[C@H]1C(=O)N[C@@H](CCCNC(=N)N)C(=O)N[C@@H](Cc1c[nH]cn1)C(=O)N[C@@H](CC(C)C)C(=O)N[C@@H](CCC(N)=O)C(=O)N[C@@H](CC(C)C)C(=O)N[C@@H](C)C(=O)N[C@H](C(=O)N[C@@H](CCCNC(=N)N)C(=O)N[C@@H](CC(N)=O)C(=O)O)C(C)C [BF2-DesHDAP1 (BD)] | 1.1 (≈ 5.42 µg/mL) | 4.6 (≈ 22.7 µg/mL)
CC[C@H](C)[C@H](NC(=O)[C@H](CCCNC(=N)N)NC(=O)[C@@H](NC(=O)[C@H](CCCCN)NC(=O)[C@H](CCCCN)NC(=O)[C@H](CC(N)=O)NC(=O)[C@H](CC(=O)O)NC(=O)[C@H](CCCNC(=N)N)NC(=O)[C@H](C)NC(=O)[C@@H]1CCCN1C(=O)[C@H](CCCCN)NC(=O)[C@H](CCCNC(=N)N)NC(=O)[C@H](CC(C)C)NC(=O)[C@H](CC(C)C)NC(=O)[C@H](CCCNC(=N)N)NC(=O)[C@H](Cc1c[nH]cn1)NC(=O)[C@@H](NC(=O)[C@H](CCCNC(=N)N)NC(=O)CNC(=O)[C@@H](NC(=O)[C@@H]1CCCN1C(=O)[C@H](Cc1c[nH]c2ccccc12)NC(=O)[C@H](CCC(N)=O)NC(=O)[C@H](CC(C)C)NC(=O)CNC(=O)[C@H](C)NC(=O)[C@H](CCCNC(=N)N)NC(=O)[C@H](CO)NC(=O)[C@H](CO)NC(=O)[C@H](CCCNC(=N)N)NC(=O)[C@@H](N)[C@@H](C)O)C(C)C)C(C)C)[C@@H](C)O)C(=O)N[C@@H](Cc1c[nH]c2ccccc12)C(=O)N1CCC[C@H]1C(=O)N[C@@H](CCCNC(=N)N)C(=O)N[C@@H](Cc1c[nH]cn1)C(=O)N[C@@H](CC(C)C)C(=O)N[C@@H](CCC(N)=O)C(=O)N[C@@H](CC(C)C)C(=O)N[C@@H](C)C(=O)N[C@H](C(=O)N[C@@H](CCCNC(=N)N)C(=O)N[C@@H](CC(N)=O)C(=O)O)C(C)C [BF2-P-DesHDAP1 (BPD)] | 1.1 (≈ 5.53 µg/mL) | 4.6 (≈ 23.1 µg/mL)
CC(C)C[C@H](NC(=O)CNC(=O)[C@H](C)NC(=O)[C@H](CCCNC(=N)N)NC(=O)[C@H](CO)NC(=O)[C@H](CO)NC(=O)[C@H](CCCNC(=N)N)NC(=O)[C@@H](N)[C@@H](C)O)C(=O)N[C@@H](CCC(N)=O)C(=O)N[C@@H](Cc1c[nH]c2ccccc12)C(=O)N1CCC[C@H]1C(=O)N[C@H](C(=O)NCC(=O)N[C@@H](CCCNC(=N)N)C(=O)N[C@H](C(=O)N[C@@H](Cc1c[nH]cn1)C(=O)N[C@@H](CCCNC(=N)N)C(=O)N[C@@H](CC(C)C)C(=O)N[C@@H](CC(C)C)C(=O)N[C@@H](CCCNC(=N)N)C(=O)N[C@@H](CCCCN)C(=O)O)C(C)C)C(C)C [Buforin II (BF2), reference compound] | >18.2 | 
CC[C@H](C)[C@H](NC(=O)[C@H](CCCNC(=N)N)NC(=O)[C@@H](NC(=O)[C@H](CCCCN)NC(=O)[C@H](CCCCN)NC(=O)[C@H](CC(N)=O)NC(=O)[C@H](CC(=O)O)NC(=O)[C@H](CCCNC(=N)N)NC(=O)[C@H](C)N)[C@@H](C)O)C(=O)N[C@@H](Cc1c[nH]c2ccccc12)C(=O)N1CCC[C@H]1C(=O)N[C@@H](CCCNC(=N)N)C(=O)N[C@@H](Cc1c[nH]cn1)C(=O)N[C@@H](CC(C)C)C(=O)N[C@@H](CCC(N)=O)C(=O)N[C@@H](CC(C)C)C(=O)N[C@@H](C)C(=O)N[C@H](C(=O)N[C@@H](CCCNC(=N)N)C(=O)N[C@@H](CC(N)=O)C(=O)N[C@@H](C)C(=O)N[C@H](C(=O)N[C@@H](CCCNC(=N)N)C(=O)N[C@@H](CO)C(=O)N[C@@H](CO)C(=O)N[C@@H](CCCNC(=N)N)C(=O)N[C@@H](C)C(=O)NCC(=O)N[C@@H](CC(C)C)C(=O)N[C@@H](CCC(N)=O)C(=O)N[C@@H](Cc1c[nH]c2ccccc12)C(=O)N1CCC[C@H]1C(=O)N[C@H](C(=O)NCC(=O)N[C@@H](CCCNC(=N)N)C(=O)N[C@H](C(=O)N[C@@H](Cc1c[nH]cn1)C(=O)N[C@@H](CCCNC(=N)N)C(=O)N[C@@H](CC(C)C)C(=O)N[C@@H](CC(C)C)C(=O)N[C@@H](CCCNC(=N)N)C(=O)N[C@@H](CCCCN)C(=O)O)C(C)C)C(C)C)[C@@H](C)O)C(C)C [DesHDAP1-A-BF2 (DAB)] | 1.1 (≈ 5.5 µg/mL) | 4.6 (≈ 23 µg/mL)
CC[C@H](C)[C@H](NC(=O)[C@H](CCCNC(=N)N)NC(=O)[C@@H](NC(=O)[C@H](CCCCN)NC(=O)[C@H](CCCCN)NC(=O)[C@H](CC(N)=O)NC(=O)[C@H](CC(=O)O)NC(=O)[C@H](CCCNC(=N)N)NC(=O)[C@H](C)N)[C@@H](C)O)C(=O)N[C@@H](Cc1c[nH]c2ccccc12)C(=O)N1CCC[C@H]1C(=O)N[C@@H](CCCNC(=N)N)C(=O)N[C@@H](Cc1c[nH]cn1)C(=O)N[C@@H](CC(C)C)C(=O)N[C@@H](CCC(N)=O)C(=O)N[C@@H](CC(C)C)C(=O)N[C@@H](C)C(=O)N[C@H](C(=O)N[C@@H](CCCNC(=N)N)C(=O)N[C@@H](CC(N)=O)C(=O)N[C@H](C(=O)N[C@@H](CCCNC(=N)N)C(=O)N[C@@H](CO)C(=O)N[C@@H](CO)C(=O)N[C@@H](CCCNC(=N)N)C(=O)N[C@@H](C)C(=O)NCC(=O)N[C@@H](CC(C)C)C(=O)N[C@@H](CCC(N)=O)C(=O)N[C@@H](Cc1c[nH]c2ccccc12)C(=O)N1CCC[C@H]1C(=O)N[C@H](C(=O)NCC(=O)N[C@@H](CCCNC(=N)N)C(=O)N[C@H](C(=O)N[C@@H](Cc1c[nH]cn1)C(=O)N[C@@H](CCCNC(=N)N)C(=O)N[C@@H](CC(C)C)C(=O)N[C@@H](CC(C)C)C(=O)N[C@@H](CCCNC(=N)N)C(=O)N[C@@H](CCCCN)C(=O)O)C(C)C)C(C)C)[C@@H](C)O)C(C)C [DesHDAP1-BF2 (DB)] | 1.1 (≈ 5.42 µg/mL) | 4.6 (≈ 22.7 µg/mL)
